What was measured:
acid phosphatase = assay: Enzyme inhibiting activity; assay type: biochemical; settings: pH 5, 37° C. for 20 minutes
Description: A 2×10^-4 M aqueous solution of fluorine-containing amino acid was prepared by adding a fluorine-containing amino acid, viz. CF2 ClCHFCH2 CH(NH2)CO2 H, dissolved in a small amount of methanol to a mixture consisting of 0.1 cc of a 0.025% aqueous solution of acid phosphatase, 0.1 mol of a substrate, 0.05 cc of DPNP, 0.25 cc of water and a 0.1 N sodium acetate (pH 5) as a buffer. The resultant mixture was incubated at 37° C. for 20 minutes. At the end of the 20 minutes, the reaction proceeding in the mixture was stopped by adding 3 cc of an aqueous NaOH solution to the mixture. The mixture was assayed for absorption at a wavelength of 422 mμ.
When the procedure was repeated by using a 1×10^-3 M aqueous solution of CF2 ClCFClCH(CH3)CH(NH2)CO2 H, the enzyme inhibition ratio was 37%.

[1] = tested on: bacterial leaf blight (Xanthomonas oryzae Dowson); assay type: cell-based; settings: paper discs immersed in 500-ppm aqueous solution; after two days; qualitative
[2] = tested on: pickerelweed (Monochloria vaginalis var. plantaginea); assay: Herbicidal activity, miniature paddy field; assay type: in vivo; settings: 1% aqueous solution, after 15 days
Description: (§1) Paddy-field soil kneaded in a concrete mixer was placed in 500-ml plastic beakers. Seeds of barnyardgrass (Echinochloa crusgalli Beauv.) were scattered on the soil and incorporated in the soil to a depth of about 2 cm from the surface. Afterward, the seeds of pickerelweed (Monochloria vaginalis var. plantaginea) and purple loosestrife (Lythrum anceps) were scattered on the surface of soil. Then, slender spikerush (Eleocharis acicularis) and rice were transplanted to the soil. The soil in the beakers was inundated to a depth of about 3 cm. After two days, 1% aqueous solution of CF2 ClCFClCH2 CH(NH2)CO2 H and CF2 BrCF2 CH2 CH(NH2)CO2 H were applied to the soil in the beakers at dosage rates of 1000 g, 500 g, and 250 g per 10 acres with the aid of a pipet. After 15 days, the miniature paddy fields were examined.

[3] = tested on: purple loosestrife (Lythrum anceps); assay: Herbicidal activity, miniature paddy field; assay type: in vivo; settings: 1% aqueous solution, after 15 days
Description: as §1

[4] = tested on: blast (Pyricularia oryzae Cavara); assay type: cell-based; settings: paper discs immersed in 500-ppm aqueous solution; after two days; qualitative
[5] = tested on: diamondback moths (Plutella maculipennis Curtis); assay: Insecticidal activity, treated cabbage leaves fed to moths; assay type: in vivo; settings: 240 h, cabbage leaves immersed in 500-ppm aqueous solution, after 10 days, read-out: insects dead
Description: Cabbage leaves were immersed in a 500-ppm aqueous CF2 BrCF2 CH2 CH(NH2)CO2 H solution, removed from the solution and dried. They were placed in a Petri dish, in which a group of diamondback moths (Plutella maculipennis Curtis) were fed on the cabbage leaves. After 10 days, 70% of the insects were dead. When the same number of diamondback moths were fed on cabbage leaves which had not been given the treatment, only 10% of the insects were dead after 10 days.

[6] = tested on: melanose (Diaporthe citri Wolf); assay type: cell-based
[7] = tested on: black spot (Alternaria kikuchiana Tanka); assay type: cell-based

CC(C(N)C(=O)O)C(F)(Cl)C(F)(F)Cl (stereo not shown) [CF2 ClCFClCH(CH3)CH(NH2)CO2 H, 2-amino-3-methyl-4,5-dichloro-4,5,5-trifluoropentanoic acid]
enzyme inhibition ratio (acid phosphatase; 1×10^-3 M, 1000 µM): 37%

NC(CC(F)(F)C(F)(F)Br)C(=O)O (stereo not shown) [CF2 BrCF2 CH2 CH(NH2)CO2 H, 2-amino-4,4,5,5-tetrafluoro-5-bromopentanoic acid]
growth of the germs of bacterial leaf blight [1]: impeded the growth | destruction of pickerelweed ([2]; 250 g per 10 acres): half destroyed | destruction of pickerelweed ([2]; 500 g per 10 acres): half destroyed | destruction of pickerelweed ([2]; 1000 g per 10 acres): completely destroyed | destruction of purple loosestrife ([3]; 250 g per 10 acres): half destroyed | destruction of purple loosestrife ([3]; 500 g per 10 acres): half destroyed | destruction of purple loosestrife ([3]; 1000 g per 10 acres): completely destroyed | growth of the germs of blast [4]: impeded the growth | mortality at 500 µg/mL [5]: 70%

NC(CC(F)(Cl)C(F)(F)Cl)C(=O)O (stereo not shown) [CF2 ClCFClCH2 CH(NH2)CO2 H]
destruction of pickerelweed ([2]; 250 g per 10 acres): completely destroyed | destruction of pickerelweed ([2]; 500 g per 10 acres): completely destroyed | destruction of pickerelweed ([2]; 1000 g per 10 acres): completely destroyed | destruction of purple loosestrife ([3]; 250 g per 10 acres): completely destroyed | destruction of purple loosestrife ([3]; 500 g per 10 acres): completely destroyed | destruction of purple loosestrife ([3]; 1000 g per 10 acres): completely destroyed | growth of the germs of melanose [6]: impeded the growth | growth of the germs of black spot [7]: impeded the growth

NC(CC(F)C(F)(F)Cl)C(=O)O (stereo not shown) [CF2 ClCHFCH2 CH(NH2)CO2 H, 2-amino-4,5,5-trifluoro-5-chloropentanoic acid]
enzyme inhibition (acid phosphatase; 2×10^-4 M): 58%
